Assay results taken from patent US20060178398A1, “Therapeutic compounds for treating dyslipidemic conditions” (priority 2004, published 2006).

System: Caco-2 cells
Assay: Cholesterol efflux from cultured human cells (Caco-2, 3H-cholesterol, apoA-I)
Assay type: cell-based
Conditions: 24 h, mean of quadruplicate incubations
Procedure: To assess the relevant biological activity of the LXR agonists, certain compounds were tested for their ability to increase cholesterol efflux from cultured human cells, as described by Sparrow et al., JBC, 277, 10021-10027, Mar. 22, 2002. Caco-2 cells, which are of human origin, were obtained from ATCC and grown in Opti-MEM (Gibco #51985-034) containing 10% FCS, non-essential amino acids (Gibco #11140-050), and vitamins (Gibco # 11120-052). Caco-2 cells were plated at 100,000 cells/well in 48-well plates. After four days the cells had reached confluence, and were then labeled with ^3H-cholesterol by incubation for 24 hours in fresh growth media containing ^3H-cholesterol (10 μCi/ml). Following labeling with ^3H-cholesterol, cells were washed and incubated an additional 24 hours in serum-free media containing 1 mg/ml BSA, to allow for equilibration of ^3H-cholesterol with intracellular cholesterol. Cholesterol efflux was initiated by adding 10 μg/ml apoA-I, with or without compound, in serum-free medium. Compounds were added to cell culture medium from DMSO solutions, and control cells received an equivalent amount of DMSO, never exceeding 0.1%. After 24 hours, media were harvested and cells dissolved in 0.1 M NaOH. Media were briefly centrifuged to remove non-adherent cells, and then aliquots of both the supernatants and the dissolved cells were subjected to liquid scintillation spectrometry to determine radioactivity. Cholesterol efflux is expressed as a percentage, calculated as (^3H-cholesterol in medium/(^3H-cholesterol in medium +^3H-cholesterol in cells))×100.

| Structure (SMILES) | % cholesterol efflux (compound concentration 10 nM) [%] | % cholesterol efflux (compound concentration 30 nM) [%] | % cholesterol efflux (compound concentration 100 nM) [%] | % cholesterol efflux (compound concentration 300 nM) [%] | % cholesterol efflux (compound concentration 1000 nM) [%] | % cholesterol efflux (compound concentration 3000 nM) [%] |
| --- | --- | --- | --- | --- | --- | --- |
| CCCc1c(OCCCN(C)c2cnc(CC(=O)O)cn2)ccc2c(C(F)(F)F)noc12 [Example 25, {5-[methyl(3-{[7-propyl-3-(trifluoromethyl)-1,2-benzisoxazol-6-yl]oxy}propyl)amino]pyrazin-2-yl}acetic acid] | 3.4 | 4.4 | 4.3 | 6.6 | 7.4 | 7.7 |
| CCCc1c(OCCCn2ccc3cc(CC(=O)O)c(Cl)cc32)ccc2c(C(F)(F)F)noc12 [Example 40, [6-chloro-1-(3-{[7-propyl-3-(trifluoromethyl)-1,2-benzisoxazol-6-yl]oxy}propyl)-1H-indol-5-yl]acetic acid] | 4.9 | 5.2 | 5.9 | 6.3 | 6.5 | 7.7 |
